Tested on: adult primary rat cardiomyocytes
Assay: ROS production (DHE oxidation) in adult primary cardiomyocytes during in situ IR
Format: cell-based
Details: 40 min ischaemia then reoxygenation, 4 mM in ischaemic buffer
Experimental: FIG. 13: Tracking cardiomyocytes ROS levels in primary cardiomyocytes during in situ IR. Primary rat cardiomyocytes were subjected to 40 min ischaemia and reoxygenation with ROS levels tracked throughout the experiment by ratiometric measurement of dihydroethidium (DHE) oxidation. […] Representative traces of each condition are shown. The highlighted window indicates the period of the experiment expanded in detail in FIG. 3.a.
Male Sprague-Dawley rats (300-370 g) were terminally anaesthetised via IP injections of 200 mg/kg sodium pentobarbitone and 330 U/kg heparin. Hearts were excised and retrograde perfused on a Langendorff-perfusion system with 13 mL/min oxygenated KH buffer at 37° C. Cells were isolated by collagenase digestion using standard methods^41. […]
Cells were imaged within 36 hours of plating. […] Simulated ischaemia was achieved by replacing the buffer with a pre-gassed, hypoxic recording buffer simulating ischaemia (as above but lacking glucose and containing 10 mM sodium lactate, 14.8 mM KCl; pH 6.4) and by covering the heated stage with a transparent, gas-impermeant lid, forming a small chamber into which argon was forced to maintain hypoxia. pO2 was routinely measured as <2.0 mm Hg during simulated ischaemia. […]
ROS production was estimated by oxidation of DHE. […] All measured cell parameters were analysed with Fiji image processing software.

## COC(=O)CC(=O)OC [dimethyl malonate]
  ROS production / DHE oxidation upon reperfusion: reduced DHE oxidation upon reperfusion

Reference: US10603298B2, “Succinate dehydrogenase inhibitors (SDHi's)” (Medical Research Council, priority 2014, dated 2020)
